Marks after values point to notes of the source that are not given here.
Key:
Format in all cases: in vivo
Details in all cases: 100 = 100% disease control
Botrytis cinerea = assay: Test E: tomato botrytis, preventive spray on tomato seedlings, visual disease rating
From the text: General protocol for preparing test suspensions for Tests A-E: the test compounds were first dissolved in acetone in an amount equal to 11% of the final volume and then suspended at the desired concentration (in ppm) in acetone and purified water (50/50 mix by volume) containing 250 ppm of the surfactant Trem® 014 (polyhydric alcohol esters). The resulting test suspensions were then used in Tests A-E. Spraying a 200 ppm test suspension to the point of run-off on the test plants was the equivalent of a rate of 800 g/ha.
The test suspension was sprayed to the point of run-off on tomato seedlings. The following day the seedlings were inoculated with a spore suspension of Botrytis cinerea (the causal agent of tomato botrytis) and incubated in saturated atmosphere at 20° C. for 48 h, and then moved to a growth chamber at 27° C. for 3 additional days, after which time disease ratings were visually made.
Results for Tests A-E are given in Table A. In the Table, a rating of 100 indicates 100% disease control and a rating of 0 indicates no disease control (relative to the controls). A dash (-) indicates no test results. All results are for 200 ppm except where followed by an “*”, which indicates 40 ppm or “**”, which indicates 50 ppm.

[1] = tested on: Erysiphe graminis f. sp. tritici; assay: Test A: wheat powdery mildew, preventive spray on wheat seedlings, visual disease rating
Method in brief: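 Wheat seedlings sprayed to run-off with compound in acetone/water with 250 ppm Trem 014 (200 ppm ≈ 800 g/ha; some at 40 or 50 ppm), inoculated next day with spore dust. After 8 days at 20° C, disease control rated visually, 0–100% relative to controls.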

Septoria tritici = assay: Test C: wheat leaf blotch, preventive spray on wheat seedlings, visual disease rating
Method in brief: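 Compounds in acetone (11% of final volume) suspended in acetone/water 50/50 with 250 ppm Trem® 014; 200 ppm (≈800 g/ha), some at 40 or 50 ppm, sprayed to run-off. Septoria tritici inoculated next day; 48 h saturated at 24° C., then 19 days at 20° C.; visual rating, 0–100% control vs untreated.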

[2] = tested on: Puccinia recondita f sp. tritici; assay: Test B: wheat leaf rust, preventive spray on wheat seedlings, visual disease rating
Method in brief: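 Test suspension in acetone/water 50/50 with 250 ppm Trem® 014, sprayed to run-off on wheat seedlings at 200 ppm (≈800 g/ha), or 40 or 50 ppm where marked. Inoculated next day with spores, held 24 h saturated at 20° C, then 7 days at 20° C; disease control rated visually, 0–100 versus controls.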

Septoria nodorum = assay: Test D: wheat glume blotch, preventive spray on wheat seedlings, visual disease rating
Method in brief: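 Preventive test: wheat seedlings sprayed to run-off with compound suspension (acetone/water with 250 ppm Trem 014; 200 ppm, some at 40 or 50 ppm), inoculated with Septoria nodorum next day. Held 48 h saturated at 20° C, then 7 days at 20° C; visual rating 0-100% disease control versus controls.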

Compound | Test E disease control rating (Botrytis cinerea; 40 ppm (*)) | Test A disease control rating ([1]; 40 ppm (*)) | Test C disease control rating (Septoria tritici; 40 ppm (*)) | Test B disease control rating ([2]; 40 ppm (*)) | Test D disease control rating (Septoria nodorum; 40 ppm (*)) | further results
COC(=O)NCc1cc(-n2ccc(-c3ccc(Cl)cc3Br)n2)ccc1C [Cmpd 80] | 81* % | 97* % | 58* % | 100* % | 100* % | –
COC(=O)NCc1cc(-c2ccn(-c3ccc(F)cc3F)n2)ccc1C [Cmpd 64] | 74* % | 100* % | 97* % | 100* % | 100* % | –
methyl N-[[5-[4-(2,4-dimethylphenyl)-2H-1,2,3-triazol-2-yl]-2-methylphenyl]-methyl]carbamate [Compound 91] | 33* % | 100* % | 92* % | 100* % | 100* % | –
COC(=O)NCc1cc(-c2ccn(-c3ccc(Cl)cc3O)n2)ccc1C [Cmpd 33] | – | – | – | – | – | Test E disease control rating (Botrytis cinerea; 200 ppm): 0%; Test A disease control rating ([1]; 200 ppm): 0%; Test C disease control rating (Septoria tritici; 200 ppm): 2%; Test B disease control rating ([2]; 200 ppm): 94%; Test D disease control rating (Septoria nodorum; 200 ppm): 100%
COC(=O)NCc1cc(-n2ncc(-c3ccc(OC)cc3Cl)n2)ccc1C [Cmpd 68] | 77* % | 100* % | 99* % | 100* % | 100* % | –
C#CCOc1cc(Cl)ccc1-n1ccc(-c2ccc(C)c(CNC(=O)OC)c2)n1 [Cmpd 34] | – | – | – | – | – | Test E disease control rating (Botrytis cinerea; 200 ppm): 91%; Test A disease control rating ([1]; 200 ppm): 100%; Test C disease control rating (Septoria tritici; 200 ppm): 100%; Test B disease control rating ([2]; 200 ppm): 100%; Test D disease control rating (Septoria nodorum; 200 ppm): 100%
COC(=O)NCc1cc(-n2ccc(-c3ccc(C#N)cc3C)n2)ccc1C [Cmpd 69] | 0* % | 100* % | 66* % | 100* % | 100* % | –
COC(=O)NCc1cc(-n2ccc(-c3ccc(F)cc3Cl)n2)ccc1C [Cmpd 40] | 80* % | 100* % | 100* % | 100* % | 100* % | –
COC(=O)NCc1cc(-n2ccc(-c3ccc([N+](=O)[O-])cc3Cl)n2)ccc1C [Cmpd 110] | 0* % | 72* % | 93* % | 100* % | 100* % | –
COC(=O)NCc1cc(-n2ccc(-c3ccc(F)cc3Br)n2)ccc1C [Cmpd 57] | 63* % | 100* % | 99* % | 100* % | 100* % | –
COC(=O)NCc1cc(-n2ccc(-c3ccc(OC)cc3Cl)n2)ccc1C [Cmpd 13] | – | – | – | – | – | Test E disease control rating (Botrytis cinerea; 200 ppm): 99%; Test A disease control rating ([1]; 200 ppm): 100%; Test C disease control rating (Septoria tritici; 200 ppm): 100%; Test B disease control rating ([2]; 200 ppm): 100%; Test D disease control rating (Septoria nodorum; 200 ppm): 100%
COC(=O)NCc1cc(-c2ccn(-c3ccc(Cl)cc3Br)n2)ccc1C [Cmpd 63] | 99* % | 100* % | 96* % | 100* % | 100* % | –
COC(=O)NCc1cc(-n2ccc(-c3ccc(Br)cc3Cl)n2)ccc1C [Cmpd 55] | 38* % | 100* % | 91* % | 100* % | 100* % | –
methyl N-[[5-[1-(4-methoxy-2-methylphenyl)-1H-1,2,4-triazol-3-yl]-2-methylphenyl]methyl]carbamate [Compound 70] | – | – | – | – | – | Test E disease control rating (Botrytis cinerea; 200 ppm): 0%; Test A disease control rating ([1]; 200 ppm): 100%; Test C disease control rating (Septoria tritici; 200 ppm): 100%; Test B disease control rating ([2]; 200 ppm): 100%; Test D disease control rating (Septoria nodorum; 200 ppm): 100%
COC(=O)NCc1cc(-n2ncc(-c3ccc(F)cc3F)n2)ccc1C [Cmpd 67] | 33* % | 100* % | 98* % | 100* % | 100* % | –
COC(=O)NCc1cc(-n2ccc(-c3ccc(C)cc3Cl)n2)ccc1C [Cmpd 41] | 36* % | 100* % | 100* % | 100* % | 100* % | –
COC(=O)NCc1cc(-c2ccn(-c3ccc(OC)cc3SC)n2)ccc1C [Cmpd 16] | – | – | – | – | – | Test E disease control rating (Botrytis cinerea; 200 ppm): 97%; Test A disease control rating ([1]; 200 ppm): 97%; Test C disease control rating (Septoria tritici; 200 ppm): 85%; Test B disease control rating ([2]; 200 ppm): 100%; Test D disease control rating (Septoria nodorum; 200 ppm): 100%
COC(=O)NCc1cc(-n2ccc(-c3ccc(Cl)cc3C)n2)ccc1C [Cmpd 36] | 74* % | 100* % | 100* % | 100* % | 100* % | –
COC(=O)NCc1cc(-n2ccc(-c3ccc(Cl)cc3O)n2)ccc1C [Cmpd 71] | – | – | – | – | – | Test E disease control rating (Botrytis cinerea; 200 ppm): 8%; Test A disease control rating ([1]; 200 ppm): 90%; Test C disease control rating (Septoria tritici; 200 ppm): 51%; Test B disease control rating ([2]; 200 ppm): 99%; Test D disease control rating (Septoria nodorum; 200 ppm): 100%
COC(=O)NCc1cc(-c2ncn(-c3ccc(OC)cc3C)n2)ccc1C [Compound 70, methyl N-[[5-[1-(4-methoxy-2-methylphenyl)-1H-1,2,4-triazol-3-yl]-2-methylphenyl]methyl]carbamate] | – | – | – | – | – | pest or weed control at 40 ppm (Botrytis cinerea; Botrytis cinerea, 120 h, 40 ppm (*)): 84%; pest or weed control at 40 ppm ([1]; Blumeria graminis, 192 h, 40 ppm (*)): 99%; pest or weed control at 40 ppm (Septoria tritici; Zymoseptoria tritici, 504 h, 40 ppm (*)): 96%; pest or weed control at 40 ppm ([2]; 192 h, 40 ppm (*)): 100%; pest or weed control at 40 ppm (Septoria nodorum; Parastagonospora nodorum, 216 h, 40 ppm (*)): 100%
COC(=O)NCc1cc(-n2ncc(-c3ccc(Cl)cc3Cl)n2)ccc1C [Cmpd 86] | 54* % | 99* % | 93* % | 100* % | 100* % | –
COC(=O)NCc1cc(-n2ncc(-c3ccc(F)cc3Cl)n2)ccc1C [Cmpd 87] | 61* % | 98* % | 88* % | 100* % | 100* % | –
